This note sets out measurements from article PMC12136031 (Science Advances, 2025).

Like-named read-outs stand apart in the source and are kept apart here.

Assay [1] relates to TFEB transcriptional targets. Put plainly: RNA-seq of DCAF7 inhibitor-treated BEAS-2B cells. It counts as cell-based, human. As to conditions: 3 μM, 18 hours.
Assay [2] concerns hepatic endolysosomal capacity. In words: Murine model of hepatic lysosomal activity (dextran cascade blue uptake). In kind it is in vivo, C57BL/6 mice. The conditions noted are these: 50 mg/kg i.p. daily for 4 days.
In a further assay the target is DCAF7 (Homo sapiens, UniProt P61962). In words: Microscale thermophoresis (MST) of DCAF7 and BC18630. As to conditions: read-out: Kd (MST binding coefficient). On the technique in general: MST reads how a fluorescent partner responds to local heating, with and without ligand.
Sequence of DCAF7 (P61962 whole entry): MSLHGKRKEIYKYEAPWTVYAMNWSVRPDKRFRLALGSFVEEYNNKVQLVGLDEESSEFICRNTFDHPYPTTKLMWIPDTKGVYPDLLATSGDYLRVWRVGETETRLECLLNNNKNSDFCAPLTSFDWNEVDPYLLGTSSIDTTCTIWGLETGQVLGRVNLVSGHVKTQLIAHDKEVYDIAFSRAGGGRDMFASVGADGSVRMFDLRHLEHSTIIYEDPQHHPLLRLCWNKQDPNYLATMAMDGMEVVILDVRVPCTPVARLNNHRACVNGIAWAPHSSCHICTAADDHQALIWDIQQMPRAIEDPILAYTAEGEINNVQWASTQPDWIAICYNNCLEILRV
In assay [3] the test system is SARS-CoV-2 (USA-WA-1/2020). In kind it is in vivo, K18-hACE2 mice. As to conditions: for Survival (mice survived): BID thereafter, until day 10.

`Cl.c1ccc2c(Nc3ccc4[nH]ccc4c3)nc(-c3ccncc3)nc2c1` [BC18630, N-1H-indol-5-yl-2-pyridin-4-ylquinazolin-4-amine hydrochloride]: in assay [1], the “Transcripts previously identified as TFEB transcriptional targets” value is reported as “notable increase”. In addition, the “Mouse hepatic endolysosomal capacity” value in assay [2] is “increased”. Further, the Kd (as a rule, the free concentration of one partner at which half of the binding sites on the other are occupied at equilibrium, for simple one-to-one binding) on DCAF7 was about 4.38 µM. Besides, the “Viral titer in mouse lungs” value in assay [3] (3 dpi, both treatments (pre and post), 40 mg/kg oral BID) was “substantialy decreased”. In assay [3] (mouse lung, 6 dpi), the “TFEB IHC signal in the airways” value is “increase”. The “Survival (mice survived)” value in assay [3] (post-treat: 40 mg/kg 12 hours after infection) is 2/5; in assay [3] (pre-treat: 40 mg/kg 24 hours before infection), 3/5.
